Results on nine compounds are retold here after patent US4072668A, “LH-RH Analogs” (The Salk Institute for Biological Studies, priority 1974, dated 1978).

Non-standard residues stand in square brackets, D forms with d. Residues, ends and D or L forms follow the SMILES beside them. pGlu = O=C1CC[C@@H](C(=O)O)N1

Experiment [1] has as its system pituitary gland.
Experiment [2] deals with dispersed rat pituitary cells. Description: In vitro suppression of LRF-generated LH secretion in dispersed rat pituitary cell culture. It counts as cell-based. The following applies: molar ratio of peptide to LRF; culture inoculated with 3×10^-5 M of LRF. The protocol: (§1) Using the above method, the peptide compositions set forth below in Tables I and II were prepared. The peptide compositions were assayed in vitro and in vivo. The in vitro assay was made using a 5 day old primary culture of dispersed rat pituitary cells. The LH secreted in response to the peptide compositions was assayed by specific radioimmunoassay for rat LH. The peptide compositions were applied to the culture at a level of 3×10^-5 M. The potency of these peptide compositions which stimulate secretion of gonadotropins is expressed in terms of percent LRF potency wherein LRF has a potency of 100. For those peptide compositions which are antagonistic to secretion of gonadotropins, the culture was inoculated with 3×10^-5 M of LRF and the molar ratio of the peptide required to suppress secretion of LH generated by the LRF was determined.

Experiment [3] deals with rats. Description: In vivo suppression of LH secretion generated by injected LRF in rats. Conditions: molar ratio of peptide to LRF; rats injected with 100 nanograms of LRF. Further details: species or system rat. The protocol: (§2) The effectiveness of the peptide compositions which stimulate secretion of gonadotropins was determined in vivo by intravenous injection of 100 nanograms of the peptide into rats. The rats were chronically ovariectomized and were treated with estrogen and progesterone prior to assay. The LH level was determined in plasma by solid phase radioimmunoassay for rat LH. For those peptide compositions which are antagonistic to secretion of gonadotropins, the rats were injected with 100 nanograms of LRF and the molar ratio of the peptide required to suppress section of LH generated by the LRF was determined.

The test system of experiment [4] is pituitary gland. The experiment in a line: Inhibition of release of gonadotropins by the pituitary gland (test not given). Further details: species or system mammalians. Conditions: relative to Gly6 peptide.
In experiment [5] the test system is pituitary gland. The experiment in a line: Release of gonadotropins after administration to a mammal. In kind it is in vivo. The following applies: 500 nanograms per kilogram of body weight.
Experiment [6] has as its system dispersed rat pituitary cells. Description: In vitro LH secretion by primary culture of dispersed rat pituitary cells (stimulation), rat LH radioimmunoassay. It counts as cell-based. Conditions: peptide applied to culture at 3×10^-5 M; LRF has a potency of 100. The protocol: as §1
Experiment [7] has as its system rats. The experiment in a line: In vivo plasma LH after intravenous injection into ovariectomized, estrogen/progesterone-treated rats. Conditions: intravenous injection of 100 nanograms of peptide, LRF = 100. Also on record: species or system rat. The protocol:
as §2

For `CC(C)C[C@H](NC(=O)[C@@H](CC(C)C)NC(=O)[C@H](Cc1ccc(O)cc1)NC(=O)[C@H](CO)NC(=O)[C@H](Cc1c[nH]c2ccccc12)NC(=O)[C@H](Cc1c[nH]cn1)NC(=O)[C@@H]1CCC(=O)N1)C(=O)N[C@@H](CCCNC(=N)N)C(=O)N1CCC[C@H]1C(=O)NCC(N)=O` [D-Leu for Gly], the “percent potency for effecting release of luteinizing hormone (compared to the LRF decapeptide)” value (from here on “percent potency for effecting release”) in the experiment on pituitary gland [1] is recorded as 60%. Still for that read-out and setting: as for `CC(C)C[C@H](NC(=O)[C@H]1CCCN1C(=O)[C@H](Cc1ccc(O)cc1)NC(=O)[C@H](CO)NC(=O)[C@H](Cc1c[nH]c2ccccc12)NC(=O)[C@H](Cc1c[nH]cn1)NC(=O)[C@@H]1CCC(=O)N1)C(=O)N[C@@H](CCCNC(=N)N)C(=O)N1CCC[C@H]1C(=O)NCC(N)=O` [D-Pro], the figure is 10%. In the case of `CCNC(=O)[C@@H]1CCCN1C(=O)[C@H](CCCNC(=N)N)NC(=O)[C@H](CC(C)C)NC(=O)[C@@H](C)NC(=O)[C@H](Cc1ccc(O)cc1)NC(=O)[C@H](CO)NC(=O)[C@H](Cc1c[nH]c2ccccc12)NC(=O)CNC(=O)[C@@H]1CCC(=O)N1` [pGlu-Gly-Trp-Ser-Tyr-D-Ala-Leu-Arg-Pro-NHCH2 CH3] ([pGlu]GWSY[dA]LRP-NHEt), the “Molar ratio necessary to produce inhibition In Vitro” value in experiment [2] stood at 700. Further, in the experiment on rats [3], the “Molar ratio necessary to produce inhibition In Vivo” value is 500. On to `CC(C)C[C@H](NC(=O)[C@@H](C)NC(=O)[C@H](Cc1ccc(O)cc1)NC(=O)[C@H](CO)NC(=O)[C@H](Cc1c[nH]c2ccccc12)NC(=O)[C@@H]1CCC(=O)N1)C(=O)N[C@@H](CCCNC(=N)N)C(=O)N1CCC[C@H]1C(=O)NCC(N)=O` [pGlu-Trp-Ser-Tyr-D-Ala-Leu-Arg-Pro-Gly-NH2] ([pGlu]WSY[dA]LRPG-NH2), for which the “Molar ratio necessary to produce inhibition In Vitro” value in experiment [2] was determined as 700. Besides, in the experiment on rats [3], the “Molar ratio necessary to produce inhibition In Vivo” value is reported as 500. For the same compound, the “times more potent as inhibitor for release of gonadotropins than the same peptide with Gly in the 6-position” value with pituitary gland [4] turned out to be 3 times. For `CC(C)C[C@H](NC(=O)[C@H](NC(=O)[C@H](Cc1ccc(O)cc1)NC(=O)[C@H](CO)NC(=O)[C@H](Cc1c[nH]c2ccccc12)NC(=O)[C@H](Cc1c[nH]cn1)NC(=O)[C@@H]1CCC(=O)N1)C(C)C)C(=O)N[C@@H](CCCNC(=N)N)C(=O)N1CCC[C@H]1C(=O)NCC(N)=O` [D-Val for Gly], the “percent potency for effecting release” value in the experiment with pituitary gland [1] is 30%. On to `CC(C)C[C@H](NC(=O)CNC(=O)[C@H](Cc1ccc(O)cc1)NC(=O)[C@H](CO)NC(=O)[C@H](Cc1c[nH]c2ccccc12)NC(=O)[C@H](Cc1c[nH]cn1)NC(=O)[C@@H]1CCC(=O)N1)C(=O)N[C@@H](CCCNC(=N)N)C(=O)N1CCC[C@H]1C(=O)NCC(N)=O` [pGlu-His-Trp-Ser-Tyr-Gly-Leu-Arg-Pro-Gly-NH2], for which the “release of gonadotropins by the pituitary gland (in words)” value with pituitary gland [5] is “significant release of gonadotropins”. Consider `CC(C)C[C@H](NC(=O)[C@H](C)NC(=O)[C@H](Cc1ccc(O)cc1)NC(=O)[C@H](CO)NC(=O)[C@H](Cc1c[nH]c2ccccc12)NC(=O)[C@H](Cc1c[nH]cn1)NC(=O)[C@@H]1CCC(=O)N1)C(=O)N[C@@H](CCCNC(=N)N)C(=O)N1CCC[C@H]1C(=O)NCC(N)=O` [L-Ala for Gly in the 6-position of LRF], for which the “percent potency for effecting release” value in the experiment with pituitary gland [1] was determined as 3%.

On to `CC(C)C[C@H](NC(=O)CNC(=O)[C@H](Cc1ccc(O)cc1)NC(=O)[C@H](CO)NC(=O)[C@H](Cc1c[nH]c2ccccc12)NC(=O)[C@@H]1CCC(=O)N1)C(=O)N[C@@H](CCCNC(=N)N)C(=O)N1CCC[C@H]1C(=O)NCC(N)=O` [pGlu-deleted-Trp-Ser-Tyr-Gly-Leu-Arg-Pro-Gly-NH2] ([pGlu]WSYGLRPG-NH2), for which the “Molar ratio necessary to produce inhibition In Vitro” value in experiment [2] is on record as 2,000. Besides, the “Molar ratio necessary to produce inhibition In Vivo” value in the experiment with rats [3] is on record as 3,000. As for “pGlu-His-Trp-Ser-Tyr-Gly-Leu-Arg-Pro-NHCH 2 CH3”, the “Percent LRF Potency In Vitro” value in experiment [6] was 1,500%. Moreover, in the experiment with rats [7], the “Percent LRF Potency In Vivo” value is 300%.
